One compound from patent publication US20220362330A1, “Compositions and Methods for Increasing Epithelial Barrier Function” (The Board of Trustees of the Leland Stanford Junior …, priority 2019, published 2022) can be followed below.

Entries after “also recorded” stand apart in the source; their conditions may differ.

Data set [1] concerns upstream regulators EFNA3 and ROCK2. Put plainly: Genome-wide gene expression and pathway analysis of vaginal tissue. To be noted: DMPA-treated vs estrus-stage mice. The class given is in vivo. On the procedure: The above results established changes that occur in genital mucosa of women initiating DMPA are recapitulated in DMPA-treated mice, and these that changes include lower expression of the cell-cell adhesion molecule DSG1 and increased genital mucosal permeability. To investigate mechanisms for DMPA-mediated downregulation of DSG1, genome-wide gene expression studies were performed with vaginal tissue from estrus-stage mice (i.e., mice resistant to genital HSV infection) and DMPA-treated mice (i.e., mice highly susceptible to this virus). […] EFNA molecules are involved in pathways that induce DSG1 expression and regulate epithelial cell responses and formation of intercellular adhesion complexes, and Eph receptors stimulate ROCK2-mediated actinomyosin contractility that increases keratinocyte differentiation via DSG1 upregulation. These gene expression analyses thus identified a potential mechanism by which progestins alter E-regulated expression of EFNA3 and ROCK2 and levels of DSG1. As EFNA3, DSG1, and ROCK2 are basally expressed in human genital epithelium, capacity of this E-regulated pathway to promote genital mucosal integrity in mice may also extend to results seen in the human female genital tract.

In another data set the test system is DSG1. Put plainly: DSG1 gene expression in ectocervical biopsies from women. The class given is in vivo. To be noted: 1 month after initiating DMPA vs no hormonal contraceptive. An excerpt: FIG. 3 is a graph showing the effect of DMPA on ectocervical DSG1 gene expression in women. Ectocervical biopsy tissue collected from the same women; before they started (No HC) and 1 month after they initiated DMPA.
(§1) To confirm the relevance of the mouse model findings, DMPA-mediated changes in mucosal permeability was explored with ectocervical biopsies from women using no hormonal contraceptive and again 1 month after they initiated DMPA.
(§2) Human ectocervical and murine vaginal tissues were immediately immersed in 1 mL of RNAlater® (Qiagen), stored for 24 h at 4° C., and stored long-term at −80° C. RNA isolated using the RNeasy Lipid Tissue Kit (Qiagen) using manufacturer's instructions was re-suspended in nuclease-free water and quantified using a NanoDrop spectrophotometer (Thermo Scientific). The following mouse primers were utilized: desmocollin 1 (Mm00496525_ml), desmoglein-1α (Mm00809994_s1), ephrinA3 (Mm01212723_g1) and pyruvate carboxylase (Mm00500992_ml) as housekeeping reference gene (all from Thermo Scientific). […] To define relative gene expression, 100 ng of RNA was mixed with TaqMan® RNA-to-Ct™ 1-Step Kit and adequate primer (final volume of 10 μL/well) using manufacturer's instructions (Life Technologies). qRT-PCR was performed using a Quantstudio3 Thermal Cycler, and data analyzed via Quanstudio Software (Applied Biosystems).

A further data set concerns desmoglein-1a (DSG1a). In words: qRT-PCR of Dsg1a gene expression in vaginal tissue. The settings on record: progestin-treated mice vs mice in estrus. The format is in vivo, mice. On the procedure:
(§3) To define progestin-mediated changes in mucosal permeability, vaginal tissue from mice in estrus, diestrus, or after DMPA or LNG treatment was used to measure expression of the desmosomal cadherins desmoglein-1a (DSG1a) and desmocollin-1 (DSC1).
(§4) Human ectocervical and murine vaginal tissues were immediately immersed in 1 mL of RNAlater® (Qiagen), stored for 24 h at 4° C., and stored long-term at −80° C. RNA isolated using the RNeasy Lipid Tissue Kit (Qiagen) using manufacturer's instructions was re-suspended in nuclease-free water and quantified using a NanoDrop spectrophotometer (Thermo Scientific). The following mouse primers were utilized: desmocollin 1 (Mm00496525_ml), desmoglein-1α (Mm00809994_s1), ephrinA3 (Mm01212723_g1) and pyruvate carboxylase (Mm00500992_ml) as housekeeping reference gene (all from Thermo Scientific). These human primers were used: desmoglein-1 (Hs00355084_m1) and glucose-6-phosphate isomerase (Hs00976711_m1) as a housekeeping reference gene. To define relative gene expression, 100 ng of RNA was mixed with TaqMan® RNA-to-Ct™ 1-Step Kit and adequate primer (final volume of 10 μL/well) using manufacturer's instructions (Life Technologies). qRT-PCR was performed using a Quantstudio3 Thermal Cycler, and data analyzed via Quanstudio Software (Applied Biosystems).
Background: In qPCR the cycle at which signal appears reflects the starting amount.

For data set [2], the system named is genital mucosal permeability. In words: Human tissue permeability assay on biopsy specimens. Also noted: species or system women. The method, then: as §1
Endocervical biopsy specimens obtained from women were placed in transport media, transferred into sterile 96-well plates, and incubated 45 minutes in a 20 μL solution of PBS containing LY and DR (at the same concentrations used in mouse studies). Tissue was likewise fixed and embedded as detailed for mice. Stratified squamous epithelium, lamina propria, and connective tissue were identified using light microscopy (at 100× magnification), while images obtained at 400× magnification were used to quantify penetration of LY into ectocervical tissue.

Another data set relates to desmocollin-1 (DSC1). In words: qRT-PCR of Dsc1 gene expression in vaginal tissue. The class given is in vivo, mice. The settings on record: progestin-treated mice vs mice in estrus. The method, then: as §3, §4
The test system of another data set is EphrinA3 (EFNA3). Put plainly: EphrinA3 gene and protein expression in vaginal tissue (RT-PCR, immunohistochemistry). The format is in vivo. To be noted: DMPA-treated vs estrus-stage mice.
Description: Vaginal tissue was harvested from mice in estrus, DMPA-treated mice, and mice treated with DMPA and Premarin vaginal cream were placed in RNAlater® for RNA isolation or embedded in formaldehyde for histology analysis. FIG. 5A is a bar graph showing gene expression for Ephrin A3 (Efna3) relative to pyruvate carboxylase, a housekeeping gene.
To corroborate microarray results, EphrinA3 gene and protein expression were compared in estrus-stage and DMPA-treated mice. To also evaluate effects of exogenous estrogen, other DMPA-treated mice were treated intravaginally with the estrogen cream Premarin. […] The vaginal tissue was assessed for DSG1 protein levels using immunofluorescent staining and confocal microscopy.
as §2, with “Scientific).” for “Scientific). The following mouse primers were utilized: desmocollin 1 (Mm00496525_ml), desmoglein-1α (Mm00809994_s1), ephrinA3 (Mm01212723_g1) and pyruvate carboxylase (Mm00500992_ml) as housekeeping reference gene (all from Thermo Scientific).”, “Biosystems). […]” for “Biosystems).”

The test system of data set [3] is claudin-1, occludin, and tight junction protein 1. In words: Gene expression of other cell-cell adhesion molecules in vaginal tissue. The format is in vivo, mice.
A further data set has as its system markers of inflammation. Put plainly: Expression of markers of inflammation in ectocervical biopsies from women. The format is in vivo. The settings on record: 1 month after initiating DMPA vs no hormonal contraceptive.

On to `CC(=O)O[C@]1(C(C)=O)CC[C@H]2[C@@H]3C[C@H](C)C4=CC(=O)CC[C@]4(C)[C@H]3CC[C@@]21C` [DMPA], for which the “effect on signaling pathways (pathway analysis)” value in data set [1] was “inhibition of signaling pathways that involve ephrin-A3 (EFNA3) and ROCK2”. For the same compound, in data set [1] (upstream regulator EFNA3), the “Expr Log Ratio” value is −2.593. Besides, the “DSG1 expression in ectocervical tissue” value in the data set with DSG1 is listed as “significantly lower”. Moreover, the “DSG1a gene expression in vaginal tissue” value in the data set on desmoglein-1a (DSG1a) is listed as “decrease gene expression levels”. For the same compound, in data set [2] (specimens collected after initiating hormonal contraceptive), the mucosal permeability result is recorded as “increased mucosal permeability”. Further, the “correlation between serum DMPA levels and genital mucosal permeability” value in data set [2] (women) was “strong positive correlation”. Moreover, the “DSC1 gene expression in vaginal tissue” value in the data set on desmocollin-1 (DSC1) was “decrease gene expression levels”. The “expression of EphrinA3 in vaginal mucosal tissue” value with EphrinA3 (EFNA3) is reported as “dramatically impair expression; also recorded: reduces EFNA3 expression”. Also, the “gene expression of claudin-1, occludin, and tight junction protein 1” value in data set [3] was “did not alter”. Besides, in the data set with markers of inflammation, the “expression of markers of inflammation in ectocervical tissue” value was “significantly higher”.
